Results from patent US9826773B2, “Brazzen multiple variants of increased sweetness, and production method for same” (CHUNG-ANG UNIVERSITY INDUSTRY—ACADEMIC COOPERATION …, priority 2012, dated 2017).

Assays:
human gustatory system = test: Measurement of sweetness activity using the human gustatory system (threshold of initially sensing sweetness); format: in vivo; conditions: for Level of sweetness compared to sucrose (g/g): mass basis; for Level of sweetness compared to sucrose (g/g) / Level of sweetness compared to sucrose (molecular): sucrose = 1; for Level of sweetness compared to sucrose (molecular): molar basis; for times as sweet as sucrose in the same mass: rounded values of the text; for times as sweet as the wild-type brazzein in the same mass: relative to wild-type brazzein
Procedure: Since brazzein is not a sugar but a protein, sweetness may not be measured using a saccharimeter. Consequently, the activity was measured using the human gustatory system. Since the threshold values of initially sensing sweetness are different per person, the activity was measured by comparing the concentrations of initially sensing sweetness between a sugar solution and a brazzein solution. The subjects were composed of 10 men and 10 women, who were trained in advance. First, the standard sugar solution was sequentially tasted, and the concentration of initially sensing sweetness was checked. Brazzein was dissolved in distilled water (10.0 mg/mL) and diluted to set the concentration to 1 to 20 ng/mL, and the sweetness of the solution was tasted and the concentration of sensing sweetness as the threshold value was checked to measure the relative activity of sweetness among sugar, wild-type brazzein, and a brazzein variant. Specifically, the activity was measured as follows. Before the activity was measured, the subject was informed in advance of the test date and time to sense the taste in tiptop conditions, and was prohibited from drinking alcohol the day before the test date and eating food immediately before the test. The subject washed the palate with bottled water prepared, and then a sample according to the concentration of each kind was tasted in each of an amount of 100 μl sequentially from a low concentration to a high concentration. The resulting data were obtained by discarding dubious values through the Q test, minimizing the standard deviation, and calculating the average.

[1] = cited from earlier work; for thermal stability: background statement
[2] = same threshold expressed in molar concentration
[3] = trained panel of 10 men and 10 women, concentration of initially sensing sweetness, 100 μl samples tasted from low to high concentration

Compound	Level of sweetness compared to sucrose (g/g) (human gustatory system)	Level of sweetness compared to sucrose (molecular) (human gustatory system)	times as sweet as sucrose in the same mass (human gustatory system)	times as sweet as the wild-type brazzein in the same mass (human gustatory system)	Threshold value of sweetness experiment (human gustatory system; [2])	Threshold value of sweetness experiment (human gustatory system; [3])	solubility and pH stability in water ([1]; Gao et al. 1999)	thermal stability [1]
K4D_H30R_E35D_E40D: brazzein multiple variant, 4th Lys to Asp in tertiary variant H30R_E35D_E40D, SEQ ID NO. 17 (DKCDKVYENYPVSKCQLANQCNYDCKLAKRARSGDCFYDDKRNLQCICDYCEY; Brazzein Variant)	1,333,333	24545600	1,300,000 times	1,670 times	0.00236 µM	0.0000015 g (100 mL)^−1	–	–
K4D_H30R_E35D_E40K: brazzein multiple variant, 4th Lys to Asp in tertiary variant H30R_E35D_E40K, SEQ ID NO. 11 (DKCDKVYENYPVSKCQLANQCNYDCKLAKRARSGDCFYDKKRNLQCICDYCEY; Brazzein Variant)	1,598,481	28379848	1,500,000 times	1,920 times	0.00204 µM	0.0000013 g (100 mL)^−1	–	–
K4R_H30R_E35D_E40R: brazzein multiple variant, 4th Lys to Arg in tertiary variant H30R_E35D_E40R, SEQ ID NO. 22 (DKCRKVYENYPVSKCQLANQCNYDCKLAKRARSGDCFYDRKRNLQCICDYCEY; Brazzein Variant)	2,000,000	37284000	2,000,000 times	2,500 times	0.00156 µM	0.0000010 g (100 mL)^−1	–	–
Brazzein: sweetener protein extracted from the fruit of Pentadiplandra brazzeana (Baillon) (QDKCKKVYENYPVSKCQLANQCNYDCKLDKHARSGECFYDEKRNLQCICDYCEY; UniProt P56552 1-54, looked up)	–	–	–	–	–	–	very high solubility and pH stability	very high thermal stability
K4E_H30R_E35D_E40K: brazzein multiple variant, 4th Lys to Glu in tertiary variant H30R_E35D_E40K, SEQ ID NO. 12 (DKCEKVYENYPVSKCQLANQCNYDCKLAKRARSGDCFYDKKRNLQCICDYCEY; Brazzein Variant)	1,666,666	30812500	1,700,000 times	2,080 times	0.00188 µM	0.0000012 g (100 mL)^−1	–	–
K4E_H30R_E35D_E40R: brazzein multiple variant, 4th Lys to Glu in tertiary variant H30R_E35D_E40R, SEQ ID NO. 21 (DKCEKVYENYPVSKCQLANQCNYDCKLAKRARSGDCFYDRKRNLQCICDYCEY; Brazzein Variant)	1,818,181	33761273	1,800,000 times	2,270 times	0.00172 µM	0.0000011 g (100 mL)^−1	–	–
Monellin	–	–	–	–	–	–	–	low thermal stability
K4E_H30R_E35D_E40A: brazzein multiple variant, 4th Lys to Glu in tertiary variant H30R_E35D_E40A, SEQ ID NO. 15 (DKCEKVYENYPVSKCQLANQCNYDCKLAKRARSGDCFYDAKRNLQCICDYCEY; Brazzein Variant)	2,000,000	36708861	2,000,000 times	2,500 times	0.00158 µM	0.0000010 g (100 mL)^−1	–	–
WT-Brazzein: wild-type brazzein, molecular weight 6501 in Table 3 (QDKCKKVYENYPVSKCQLANQCNYDCKLDKHARSGECFYDEKRNLQCICDYCEY; UniProt P56552 1-54, looked up) [reference compound]	800	15,082	–	–	3.846 µM	0.0025 g (100 mL)^−1	–	–
K4E_H30R_E35D_E40D: brazzein multiple variant, 4th Lys to Glu in tertiary variant H30R_E35D_E40D, SEQ ID NO. 18 (DKCEKVYENYPVSKCQLANQCNYDCKLAKRARSGDCFYDDKRNLQCICDYCEY; Brazzein Variant)	1,250,000	23062250	1,250,000 times	1,560 times	0.00251 µM	0.0000016 g (100 mL)^−1	–	–
K4R_H30R_E35D_E40D: brazzein multiple variant, 4th Lys to Arg in tertiary variant H30R_E35D_E40D, SEQ ID NO. 19 (DKCRKVYENYPVSKCQLANQCNYDCKLAKRARSGDCFYDDKRNLQCICDYCEY; Brazzein Variant)	1,666,666	30860187	1,700,000 times	2,080 times	0.00188 µM	0.0000012 g (100 mL)^−1	–	–
K4D_H30R_E35D_E40A: brazzein multiple variant, 4th Lys to Asp in tertiary variant H30R_E35D_E40A, SEQ ID NO. 14 (DKCDKVYENYPVSKCQLANQCNYDCKLAKRARSGDCFYDAKRNLQCICDYCEY; Brazzein Variant)	2,000,000	36708861	2,000,000 times	2,500 times	0.00158 µM	0.0000010 g (100 mL)^−1	–	–
K4R_H30R_E35D_E40K: brazzein multiple variant, 4th Lys to Arg in tertiary variant H30R_E35D_E40K, SEQ ID NO. 13 (DKCRKVYENYPVSKCQLANQCNYDCKLAKRARSGDCFYDKKRNLQCICDYCEY; Brazzein Variant)	2,000,000	37131600	2,000,000 times	2,500 times	0.00156 µM	0.0000010 g (100 mL)^−1	–	–
K4R_H30R_E35D_E40A: brazzein multiple variant, 4th Lys to Arg in tertiary variant H30R_E35D_E40A, SEQ ID NO. 16 (DKCRKVYENYPVSKCQLANQCNYDCKLAKRARSGDCFYDAKRNLQCICDYCEY; Brazzein Variant)	2,857,143	52727273	2,900,000 times	3,570 times	0.0011 µM	0.0000007 g (100 mL)^−1	–	–
OC[C@H]1O[C@@](CO)(O[C@H]2O[C@H](CO)[C@@H](O)[C@H](O)[C@H]2O)[C@@H](O)[C@@H]1O [Sucrose, reference compound]	1	1	–	–	58,000 μM	2.0 g (100 mL)^−1	–	–
K4D_H30R_E35D_E40R: brazzein multiple variant, 4th Lys to Asp in tertiary variant H30R_E35D_E40R, SEQ ID NO. 20 (DKCDKVYENYPVSKCQLANQCNYDCKLAKRARSGDCFYDRKRNLQCICDYCEY; Brazzein Variant)	1,818,181	33687455	1,800,000 times	2,270 times	0.00172 µM	0.0000011 g (100 mL)^−1	–	–
